Test results from patent US11491127B2, “Therapeutic use of compounds” (UCL BUSINESS LTD, priority 2010, dated 2022).

Assays:
[1] = tested on: inositol levels in Dictyostelium cells; assay: Inositol levels in treated Dictyostelium cells; format: cell-based, Dictyostelium discoideum; conditions: time period causing phosphoinositide attenuation (9 min)
Protocol: Following a 6 min incubation, labelling solution was removed and cells were lysed in acidified methanol and phospholipids were separated as previously detailed (Williams et al., 1999). Phospholipid labelling was quantified using a Typhoon phosphor-imager. Even loading was determined using total lipid stain with copper sulphate. Inositol levels were measured from five hour developed cells (similar to phospholipid labelling), following lyophilisation, as previously described (Maslanski & Busa, 1990).

[2] = tested on: Dictyostelium development; assay: Dictyostelium development; format: cell-based, Dictyostelium discoideum; conditions: concentrations found in plasma of patients (0.28-0.7 mM)
Protocol: Screening of a REMI library was carried out as previously described (Kuspa & Loomis, 2006) using A×2 background, with VPA resistant mutants selected for the ability to develop in the presence of 1 mM VPA on R. planticola. Identification of the ablated gene, enabled the identified PLAa (DDB_G0278525; SEQ ID NO: 16) to be recapitulated using by homologous recombination of a knockout cassette. Primers used for amplifying region within the open reading frame of the gene were (5′ […] (SEQ ID NO: 17) and 3′ […] (SEQ ID NO: 18), cloned by pCR2.1 TOPO (Invitrogen Ltd)), cloned into pUC19 using EcoRI digestion, and Sinai digested fragment from pBLPblp (Falx et al, 2004) was inserted into the EcoRV site of the insert. Genetic ablation was confirmed by PCR analysis. […] Development images were observed using a Leica CLS 150× microscope and images recorded using QICAM FAST 1394 camera. Fatty acid activation was determined by the method established by Wilson et al. (Wilson et al, 1982) with slight modifications. […] The organic phase was discarded and the aqueous phase was washed six times with 300 μl of n-heptane to remove non-activated fatty acids before the radioactivity of the acyl-CoA thioester remaining in the aqueous phase was determined in 2 ml of Lumasafe™ Plus fluid (Lumac LSC, Groningen, The Netherlands) in a scintillation counter.

[3] = tested on: fatty acid CoA activation in Dictyostelium cell extracts; assay: Fatty acid activation (palmitic acid to PaA-CoA) in cell extracts; format: biochemical, Dictyostelium discoideum; conditions: VPA 1.0 mM with cell extracts or 10 min, 1 mM pre-treatment of cells
Protocol: Screening of a REMI library was carried out as previously described (Kuspa & Loomis, 2006) using A×2 background, with VPA resistant mutants selected for the ability to develop in the presence of 1 mM VPA on R. planticola. Identification of the ablated gene, enabled the identified PLAa (DDB_G0278525; SEQ ID NO: 16) to be recapitulated using by homologous recombination of a knockout cassette. Primers used for amplifying region within the open reading frame of the gene were (5′ […] (SEQ ID NO: 17) and 3′ […] (SEQ ID NO: 18), cloned by pCR2.1 TOPO (Invitrogen Ltd)), cloned into pUC19 using EcoRI digestion, and Sinai digested fragment from pBLPblp (Falx et al, 2004) was inserted into the EcoRV site of the insert. Genetic ablation was confirmed by PCR analysis. Developmental resistance to VPA was assessed by plating cells (1×10^6) on 47 mm nitrocellulose filters (Millipore) soaked in phosphate buffer containing either 1 mM VPA or control, and development was recorded after 30 h unless otherwise stated. Development images were observed using a Leica CLS 150× microscope and images recorded using QICAM FAST 1394 camera. Fatty acid activation was determined by the method established by Wilson et al. (Wilson et al, 1982) with slight modifications. […]

## CCCC(CCC)C(=O)O [VPA, 2-propylpentanoic acid, reference compound]
[1]
  reduction in inositol levels: no significant reduction
[2]
  effect on development of Dictyostelium: inhibits the development
[3]
  effect on fatty acid activation (PaA-CoA): no effect
